Measurements taken from US10376476B2, “Panicein compounds, compositions and uses thereof” (CENTRE NATIONAL DE LA RECHERCHE SCIENTIFIQUE, priority 2014, dated 2019).

Key:
[1] = target: T1, human Patched (hPtc) expressed in S. cerevisiae (Homo sapiens, UniProt Q13635); test: Screening test 1: resistance of Patched-expressing yeast to doxorubicin (yeast growth, absorbance 600 nm); format: cell-based; details: 10 μg/mL fraction or purified compound, 10 μM doxorubicin
T1 construct: MAP; expressed in transfected cells; host or cells: Saccharomyces cerevisiae K699
T1 sequence (Q13635 1-1447): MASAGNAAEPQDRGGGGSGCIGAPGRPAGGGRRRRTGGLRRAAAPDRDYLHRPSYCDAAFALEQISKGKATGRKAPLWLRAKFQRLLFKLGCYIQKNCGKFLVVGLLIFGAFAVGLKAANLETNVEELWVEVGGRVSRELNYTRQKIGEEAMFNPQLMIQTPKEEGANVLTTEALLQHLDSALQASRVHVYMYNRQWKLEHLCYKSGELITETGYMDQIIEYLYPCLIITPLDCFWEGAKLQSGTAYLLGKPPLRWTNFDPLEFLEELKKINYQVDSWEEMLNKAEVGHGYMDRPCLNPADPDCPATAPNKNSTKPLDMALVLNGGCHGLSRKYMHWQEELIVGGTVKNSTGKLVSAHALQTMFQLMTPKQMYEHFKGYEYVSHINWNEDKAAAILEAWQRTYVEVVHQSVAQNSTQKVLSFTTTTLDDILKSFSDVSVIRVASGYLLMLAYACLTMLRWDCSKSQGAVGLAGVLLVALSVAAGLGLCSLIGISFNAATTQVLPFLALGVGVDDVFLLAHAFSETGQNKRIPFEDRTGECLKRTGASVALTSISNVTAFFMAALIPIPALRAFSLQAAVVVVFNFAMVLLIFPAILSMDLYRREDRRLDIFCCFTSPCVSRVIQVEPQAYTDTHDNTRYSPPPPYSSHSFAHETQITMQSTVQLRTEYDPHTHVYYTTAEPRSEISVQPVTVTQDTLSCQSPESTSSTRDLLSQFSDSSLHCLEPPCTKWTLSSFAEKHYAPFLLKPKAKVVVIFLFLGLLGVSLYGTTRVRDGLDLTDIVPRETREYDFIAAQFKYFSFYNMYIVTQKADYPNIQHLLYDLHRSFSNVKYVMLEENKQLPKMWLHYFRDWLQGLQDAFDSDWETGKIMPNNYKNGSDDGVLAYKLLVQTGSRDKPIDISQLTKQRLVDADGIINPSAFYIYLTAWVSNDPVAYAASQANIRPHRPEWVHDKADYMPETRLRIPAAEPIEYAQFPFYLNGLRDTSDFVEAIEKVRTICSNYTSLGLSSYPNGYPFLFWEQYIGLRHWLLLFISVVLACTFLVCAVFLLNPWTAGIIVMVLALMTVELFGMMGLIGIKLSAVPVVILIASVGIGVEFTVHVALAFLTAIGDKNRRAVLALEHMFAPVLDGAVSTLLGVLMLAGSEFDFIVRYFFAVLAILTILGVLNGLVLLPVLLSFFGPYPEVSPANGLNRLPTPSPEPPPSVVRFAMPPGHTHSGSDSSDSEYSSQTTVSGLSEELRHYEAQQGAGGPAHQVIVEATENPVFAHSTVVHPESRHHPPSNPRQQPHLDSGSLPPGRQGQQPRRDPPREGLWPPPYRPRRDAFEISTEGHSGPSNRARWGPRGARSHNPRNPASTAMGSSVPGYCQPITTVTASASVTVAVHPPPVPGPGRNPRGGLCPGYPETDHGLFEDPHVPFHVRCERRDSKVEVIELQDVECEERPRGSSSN
Experimental: A. Haliclona mucosa sponge. B. Haliclona mucosa methanolic fraction contains inhibitors of the resistance of Patched-expressing yeasts to doxorubicin. Yeast S. cerevisiae expressing hPtc were grown in 96 well plates in the presence of 10 μg/mL of the methanolic fraction of Haliclona mucosa crude extract dissolved in DMSO and in presence or not of 10 μM of doxorubicin (dxr). The growth of yeasts was measured by absorbance at 600 nm and the results shown are the mean of three independent experiments. C. Purification profile of Haliclona mucosa methanolic fraction. A preparative phenyl-hexyl HPLC column was used with a gradient starting at (47 H20: 53 ACN: 0.1 TFA) to (0 H20: 100 ACN: 0.1 TFA), flow rate: 10.0 mL/min, injection volume: 75 μl at 100 mg/mL. […] Purified compounds dissolved in DMSO were added (at 10 μg/mL) to the growth medium containing or not 10 μM dxr. The growth of yeasts was measured by absorbance at 600 nm.
S. cerevisiae expressing human Patched were grown in 10 mL of minimal medium (supplemented with 2% of glucose and amino acids cocktail without leucine) at 30° C. When the exponential phase was obtained (OD600=5-7), yeasts were precultured in the same medium to OD600=1-2. Yeasts were then diluted in rich medium containing 2% of glucose in 96-well plates. Methanolic or purified fractions (at 10 μg/mL final concentration) were added in all wells, and doxorubicin (10 μM final concentration) was added in half of the wells. Plates were incubated at 18° C. on a shaker at 1250 rpm (microtitre plate shaker SSL5 Stuart) and absorbance at 600 nm was recorded for about 72 hours.
Inventors cultured yeast S. cerevisiae expressing human Patched in their plasma membrane as previously described (Bidet et al., 2011, 2012) in 96 well plates. Methanolic fraction of Haliclona mucosa crude extracts was prepared, dissolved in DMSO at 10mg/mL and added at a final concentration of 10 μg/mL to the yeast culture medium supplemented or not with doxorubicin (dxr). As previously reported (Bidet et al., 2012), human Patched confers a resistance to growth inhibition by dxr, an […] used to treat a wide range of cancers (FIG. 2B).

[2] = tested on: Patched protein in MEWO and A375 cells; test: Western blotting of Patched after panicein treatment; format: cell-based, human; details: 24 hours, 10 μM
Experimental: Western-blotting on total extracts from MEWO and A375 cells after 24 h treatment with 10 μM of panicein A hydroquinone (P5) or with DMSO.
Total extracts from melanoma cells were prepared. Samples were separated on 8% SDS-PAGE and transferred to nitrocellulose membranes (Amersham) using standard techniques. After 1 hour at room temperature in blocking buffer (20 mmol/L Tris-HCl pH 7.5, 450 mmol/L NaCl, 0.1% Tween-20, and 4% non-fat milk), nitrocellulose membranes were incubated overnight at 4° C. with rabbit anti-Patched antiserum (Ab130.6 1:1000 generous gift from M. Ruat or Ab39266 from Abcam 1/1000) and monoclonal mouse anti-βtubulin antibody (Sigma; 1/1000). After 3 washes, membranes were incubated 45 min with anti-mouse (1:5000) or anti-rabbit (1:3000) immunoglobulin coupled to horseradish peroxidase (Dako). Detection was carried out with an ECL kit (Millipore) on a Las3000 (Fuji).

[3] = tested on: melanoma cells; test: Apoptosis by AnnexinV and DAPI co-staining; format: cell-based, human
Experimental: Cells were sampled after 24 h treatment with DMSO, paniceins and/or dxr, and apoptosis determined via AnnexinV and DAPI co-staining. Cells in early apoptosis are AnnexinV positive and DAPI negative, and cells in late apoptosis are AnnexinV and DAPI double positive. Histograms represent the mean percentage (+/−SEM) of cells in late apoptosis from three independent experiments and were analyzed using the Student t-test in which significance is attained at P<0.05 (*) (**: P<0.005).

**Q.** For C/C(=C\Cc1cc(O)ccc1O)CCc1c(C)c(O)c(O)c(C=O)c1C [P2, Panicein C], which “inhibition of the resistance (growth) of hPtc-expressing yeast in presence of dxr” value (shortened to “inhibition of the resistance”) [1] is on record?
**A.** strongly inhibit

**Q.** How did the “inhibition of the resistance” value [1] turn out when C/C(=C\Cc1cc(O)ccc1O)CCc1c(C)cc(O)c(C=O)c1C [P3, Panicein B3] was run?
**A.** strongly inhibit

**Q.** Cc1cc(O)c(C=O)c(C)c1CCC1(C)C=Cc2cc(O)ccc2O1 (stereo not shown) [P4, Panicein B2] was tested. Which “inhibition of the resistance” value [1] did it give?
**A.** lighter

**Q.** Which “effect on Patched expression or degradation” value [2] does the source give for COc1cc(C)c(CC/C(C)=C/Cc2cc(O)ccc2O)c(C)c1C [P5, Panicein A hydroquinone] here?
**A.** no effect

**Q.** And the “early apoptosis (Annexin V and DAPI labeling)” value ([3]; 24 h treatment with paniceins and/or dxr)?
**A.** increases early apoptosis

**Q.** What about the “number of apoptotic melanoma cells” value ([3]; 24 h treatment, AnnexinV and DAPI co-staining) of the same compound?
**A.** strongly increases

**Q.** What about the “inhibition of the resistance” value [1] of the same compound?
**A.** strongly inhibit
